The results in this text go back to PubChem BioAssay AID179 (DTP/NCI, 2004).

The subject of this experiment is CEM cells HIV-1 protection, formazan growth assay. Kind of experiment: NCI AIDS Antiviral Assay. Conditions: for pIC50: measured here: growth of uninfected CEM cells. In outline:
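Human CEM cells, uninfected and HIV-1-infected, exposed to five drug concentrations; growth measured by soluble formazan assay and scored as percent protection from infection, with protecting compounds retested.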

pEC50, pIC50: −log10 of the molar value. The source made the active and inactive calls.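 How the source made its calls: active means compounds giving half or more protection of infected cells from virus-caused growth loss, again on retest; inactive means the rest.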

As for `C[C@]12CCC3[C@@H](CC[C@@H]4/C(=N\O)C(=O)/C(=N\O)C[C@]34C)C1C/C(=N\O)C2=O` (some centres undefined), the result was inactive.

Turning to `COc1ccc(/C=C/C(=O)c2c(-c3ccccc3)nn(C)c(=O)c2N2CCCCC2)cc1`, the pEC50 (usually the negative decadic logarithm of the EC50, by convention in mol/L) was 4.80 and the pIC50 (in general, −log10 of the IC50, conventionally taken in molar units) is 4.72.

On to `COc1ccc(NCC(=O)Nn2c(-c3ccccc3)nc3ccccc3c2=O)cc1`, for which the pEC50 was below 3.70 and the negative logarithm of the IC50 (pIC50) was 4.75.

Consider `N#CCCC(C#N)(CCC#N)c1ccccc1`, for which the pEC50 is below 3.09 and the negative-log IC50 (pIC50) is below 3.09.

Consider `Cc1c(S(=O)(=O)c2ccccc2)c(N)n(CCN(C)C)c1C`, for which the pEC50 was below 3.70 and the negative logarithm of the IC50 (pIC50) was 4.35.

Consider `CC(=O)OC1C(O)C(C)OC(OC2C(OC(=O)C3CCC4C(C3)OC3(CC(OC(=O)/C=C/c5ccccc5)C(C)CO3)C43CO3)OC(C)C(O)C2OC(C)=O)C1O` (centres undefined), for which the pEC50 was below 5.81 and the pIC50 is 8.92.

With `NC(N)=Nc1ccc2oc(=O)ccc2c1`, the pEC50 is below 3.92 and the pIC50 is below 3.92.

As to `Nc1cc(N)c(N=Nc2ccc(CCc3ccc(N=Nc4c(N)cc(N)cc4C(=O)O)cc3S(=O)(=O)O)c(S(=O)(=O)O)c2)c(C(=O)O)c1`, the pEC50 was below 2.99 and the pIC50 is 3.76.

Consider `O=C(Nc1ccccc1)c1nn(-c2cc(S(=O)(=O)O)c([N+](=O)[O-])cc2Cl)[n+](-c2cc(S(=O)(=O)[O-])c([N+](=O)[O-])cc2Cl)n1`, for which the pEC50 is 4.19 and the pIC50 is below 4.00.

`Cc1cc(O)c(/C=N/C(=S)Nc2cccc(C)c2C)c(=O)o1`: the outcome was inactive.

Regarding `CCCCN1CCC(O)(c2cc(C(=O)O)[nH]c2-c2cc(C)no2)C1=O` (centres undefined), the pEC50 is below 3.70 and the pIC50 was 4.15.

Turning to `NS(=O)(=O)c1ccc(Nc2c3ccc(Cl)cc3nc3ncccc23)cc1`, the result was inactive.

Consider `CCOC(=O)C(N)CSC(=O)NC` (centres undefined), for which the pEC50 is below 2.99 and the negative-log IC50 (pIC50) was 4.06.

For the compound `O=C1C2=C(CCCCC2)C2CCCCC12O` (centres undefined), the pEC50 was below 3.70 and the pIC50 is below 3.70.

As for `O=C1/C(=N\N(C(=O)c2ccccc2)c2ccccc2)c2cccc3cccc1c23`, the pEC50 was below 5.42 and the pIC50 is below 5.42.

Turning to `c1csc(-c2cc(-c3cccs3)c(-c3cccs3)s2)c1`, the pEC50 is below 3.70 and the pIC50 was 4.41.

With `O=c1nc2ccccc2c2n1CCN2`, the pEC50 was below 4.02 and the pIC50 was below 4.02.

As for `O=C(N/N=C/C=C/c1ccccc1)c1ccncc1`, the pEC50 is below 3.70 and the pIC50 was 4.48.

Turning to `Oc1ccc(C[C@@H]2CN[C@H](Cc3ccc(O)c(Br)c3)CN2)cc1`, the pEC50 was below 3.70 and the pIC50 is below 3.70.

As to `O=C(O)c1cc(-c2ccccc2O)nc2ccccc12`, the pEC50 is below 3.45 and the pIC50 was 3.72.

For `CCCN1CN(c2ccccc2)C2(CCN(CCCC(=O)c3ccc(F)cc3)CC2)C1=O`, the pEC50 was below 3.70 and the pIC50 was 5.52.

Regarding `Cc1ccc(C)c(N2C/C(=N\NC(=O)CC#N)C(c3nc4ccccc4s3)C(=O)C2=O)c1` (centres undefined), the result was inactive.

Regarding `O=NN(CCCl)C(=O)NC1CCC(=O)NC1=O` (centres undefined), the pEC50 is below 3.02 and the negative-log IC50 (pIC50) was 3.74.

Consider `Clc1nc(Cl)nc(Nc2ccccc2Cl)n1`, for which the pEC50 is below 3.70 and the pIC50 was 4.01.

Consider `CCOc1ccccc1NC(=O)C(=O)CC(=O)c1sc(Nc2nnc(-c3ccc(Cl)c(Cl)c3)o2)nc1C`, for which the pEC50 was below 4.47 and the pIC50 is below 4.47.

`COC(=O)c1ccccc1C1CN=NC12Cc1cc(C)ccc1C2=O` (centres undefined): the pEC50 was below 3.70 and the negative-log IC50 (pIC50) is below 3.70.

For `N#CC12C(=O)N3C(=NC(c4ccco4)NC3c3ccco3)C1(C#N)C(c1ccco1)NC1=C2CCCC1` (centres undefined), the pEC50 was below 3.70 and the pIC50 is below 3.70.

Consider `O=C1CCC2C(O)c3cc4c(cc3C(c3ccc5c(c3)OCO5)N12)OCO4` (centres undefined), for which the pEC50 is below 3.70 and the pIC50 was below 3.70.

As for `O=c1c2ccccc2[nH]c(=S)n1-c1cccc(C(F)(F)F)c1`, the pEC50 is below 3.70 and the pIC50 was below 3.70.

`N#Cc1cc2ccccc2nc1SN`: the result was inactive.

Regarding `CC1(O)C(=O)N(Cc2ccccc2)c2ccccc21` (centres undefined), the pEC50 is below 3.85 and the pIC50 is below 3.85.

For the compound `N=C1C(=N)c2ccccc2-c2ccccc21`, the pEC50 was below 3.70 and the pIC50 was 6.39.

For `Cc1ccc(C(=O)CCC2C(=O)CC(C)(C)CC2=O)cc1`, the pEC50 is below 4.04 and the pIC50 was 4.19.

Take `Nc1ccc(/C=C2\C=Cc3ccccc32)cc1`: the pEC50 is below 3.70 and the pIC50 is 4.55.

On to `O=S(=O)([O-])c1ccc(C=Nc2ccccc2)c([O-])c1.O=S(=O)([O-])c1ccc(C=Nc2ccccc2)c([O-])c1.[Co+2]`, for which the pEC50 was below 3.39 and the pIC50 is 4.02.

As to `CC1=Nc2nc3ccccc3n2C(C)(C)C1`, the pEC50 was below 3.76 and the pIC50 is 3.95.

For `Brc1ccc2noc(-c3ccccc3)c2c1`, the pEC50 was below 5.14 and the pIC50 was below 5.14.

As for `O=C1Nc2n[nH]c(=S)n2NC12c1ccccc1-c1ccccc12`, the pEC50 is below 3.70 and the pIC50 was below 4.00.

Take `O=C(CSc1nnc(-c2ccc(N=Cc3ccc(Cl)cc3)cc2)o1)Nc1ccc([N+](=O)[O-])cc1`: the pEC50 is below 4.42 and the pIC50 was 4.81.

For the compound `CC(C)OP(=O)(OC(C)C)C([CH2][Sn]([CH3])([CH3])[Cl])P(=O)(c1ccccc1)c1ccccc1` (centres undefined), the pEC50 was below 3.70 and the pIC50 is 5.54.

Regarding `O=C(NP(=O)(N1CC1)N1CC1)OCc1ccccc1`, the pEC50 was below 3.70 and the pIC50 is below 3.70.

Turning to `COc1ccc(OCc2ccc3nc(-c4ccccc4)c(Cl)nc3c2)cc1`, the pEC50 is below 3.70 and the negative-log IC50 (pIC50) is 4.69.

Turning to `Cc1cc2c(cc1CO)N1Cc3cc(C)c(CO)cc3N(C2)C1`, the outcome was inactive.

With `O=C1CN(CC2=CC3(CC2)CCC2=C3CCCC2=O)C(=O)N1` (centres undefined), the pEC50 was below 3.38 and the pIC50 is below 3.38.

As for `CN(C)CCC(/C=C/c1ccccc1)=N\Nc1ccc(Cl)cc1`, the pEC50 was below 4.00 and the pIC50 is 4.97.

As for `C1=CC(=P(c2ccccc2)(c2ccccc2)c2ccccc2)C=C1`, the result was inactive.

Turning to `O=c1oc2ccccc2c2c1Sc1ccccc1N2`, the pEC50 is below 4.29 and the pIC50 is below 4.29.

Take `CCC1(N=[N+]=[N-])C(=O)c2ccccc2N(C)C1=O` (centres undefined): the pEC50 is below 3.70 and the pIC50 was below 3.70.

`CCCc1cc(=O)oc2c3c(c4c(c12)OC(C)(C)C=C4)O[C@H](C)C(C)[C@@H]3O` (some centres undefined): the negative-log EC50 (pEC50) was 6.48 and the pIC50 is 4.60.

Take `CCOc1ccc(NC(=O)C(=O)C2C(=O)Nc3ccccc3S2=O)cc1` (centres undefined): the pEC50 was below 4.30 and the pIC50 was below 4.30.

With `Cn1c(=O)c2[nH]c(=O)c(=O)[nH]c2n(C)c1=O`, the pEC50 was below 3.70 and the negative-log IC50 (pIC50) was below 3.70.

`Cc1nc(N)[nH]c(=O)c1CCCNc1ccc(C(=O)NC(CCC(=O)O)C(=O)O)cc1` (centres undefined): the pEC50 is below 3.70 and the negative logarithm of the IC50 (pIC50) was 5.56.

Turning to `[N-]=[N+]=Nc1ccccc1-[n+]1noc([O-])c1Br`, the pEC50 is below 3.34 and the pIC50 is below 3.34.
